Test results reported in patent US11795204B2 (Zealand Pharma A/S, priority 2012, dated 2023).

Key:
[1] = Solubility assessment (turbidity absorbance at 325 nm); details: phosphate buffer, pH 7.5
Procedure, shortened: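 Peptide stock 2 mg/ml (A280-quantified) in water at pH 2.5, diluted 1:1 into 100 mM acetate pH 4.0 or 100 mM phosphate pH 7.5. Absorbance at 280 and 325 nm read at ambient temperature, single samples (n=1).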

[2] = Chemical stability assessment (RP-HPLC normalized purity); type: physicochemical
Method: Samples were placed in glass vials and incubated at 40° C. The samples were analysed by reverse-phase HPLC on a C18 column with gradient elution using an acetonitrile/trifluoroacetic acid/water eluent system. The area-percentage (area-%) of the main peak after incubation time T=t (relative to time T=0) was detected by UV spectrometry at 220 nm. The purity was first determined as follows: Purity(area-%)=(area of main peak/total area of all peaks)×100. […] Normalized purity values in Table 2 were determined after 14 days of incubation.

[3] = Assessment of physical stability (Thioflavin T fibril formation lag-time); type: physicochemical; details: 1 mg/ml, 50 mM phosphate pH 7.5, 40° C., 96 hours
Method: A solution containing 1 mg/ml of peptide, 40 μM ThT and 50 mM phosphate buffer, pH 7.5, was loaded in a 96-well black fluorescence plate (clear bottom) in triplicate. Data were collected at fixed intervals of 10 min, each preceded by 300 s of automixing (agitation), over a period of 96 hours at 40° C. The entire experiment was repeated, but without agitation. Physical stability, expressed as lag-time of fibril formation (in hours), was defined as the intersection between two linear regressions representing the initial stable phase and the growth phase.

solubility [1]: ≥ 1000 µg/mL
Normalized purity pH 4.0 after 14 days ([2]; 1 mg/ml in 50 mM acetate buffer pH 4.0, 40° C.): 89.8%
Normalized purity pH 7.5 after 14 days ([2]; 1 mg/ml in 50 mM phosphate buffer pH 7.5, 40° C.): 93.5%
Physical Stability at pH 7.5 (agitated) ([3]; with agitation): FND
Physical Stability at pH 7.5 (non-agitated) ([3]; without agitation): FND
SMILES: CC(C)C[C@H](NC(=O)[C@H](Cc1c[nH]c2ccccc12)NC(=O)[C@H](CCCCN)NC(=O)[C@@H](NC(=O)[C@H](Cc1ccccc1)NC(=O)[C@H](CCC(=O)O)NC(=O)[C@H](CCC(=O)O)NC(=O)[C@H](C)NC(=O)[C@H](CCCNC(=N)N)NC(=O)[C@H](C)NC(=O)C(C)(C)NC(=O)[C@H](CC(=O)O)NC(=O)[C@H](CC(C)C)NC(=O)[C@H](Cc1ccc(O)cc1)NC(=O)[C@H](CCCCN)NC(=O)[C@H](CO)NC(=O)[C@H](Cc1ccc(O)cc1)NC(=O)[C@H](CC(=O)O)NC(=O)[C@H](CO)NC(=O)[C@@H](NC(=O)[C@H](Cc1ccccc1)NC(=O)[C@@H](NC(=O)CNC(=O)[C@H](CCC(N)=O)NC(=O)[C@H](CO)NC(=O)[C@@H](N)Cc1c[nH]cn1)[C@@H](C)O)[C@@H](C)O)C(C)C)C(=O)N[C@@H](CCC(=O)O)C(=O)N[C@@H](CO)C(=O)N[C@H](C(=O)O)[C@@H](C)O [Compound 21]
